Laboratory results: patent publication US8916575B2, “Quinazoline derivatives for the treatment of viral infections and further diseases” (Janssen R&D Ireland, priority 2011, dated 2014)

How the values were obtained:
human TLR7 = molecular target: T1, human TLR7 (Homo sapiens, UniProt Q9NYK1); assay: TLR7 wild type NFκB-luc cellular reporter assay; assay type: cell-based; parameters: unit not given here; conditions: HEK293 NFκB-luc reporter, 6 hours incubation; second part of table
T1 construct: expressed in transfected cells; host or cells: HEK293
T1 sequence (Q9NYK1 27-1049): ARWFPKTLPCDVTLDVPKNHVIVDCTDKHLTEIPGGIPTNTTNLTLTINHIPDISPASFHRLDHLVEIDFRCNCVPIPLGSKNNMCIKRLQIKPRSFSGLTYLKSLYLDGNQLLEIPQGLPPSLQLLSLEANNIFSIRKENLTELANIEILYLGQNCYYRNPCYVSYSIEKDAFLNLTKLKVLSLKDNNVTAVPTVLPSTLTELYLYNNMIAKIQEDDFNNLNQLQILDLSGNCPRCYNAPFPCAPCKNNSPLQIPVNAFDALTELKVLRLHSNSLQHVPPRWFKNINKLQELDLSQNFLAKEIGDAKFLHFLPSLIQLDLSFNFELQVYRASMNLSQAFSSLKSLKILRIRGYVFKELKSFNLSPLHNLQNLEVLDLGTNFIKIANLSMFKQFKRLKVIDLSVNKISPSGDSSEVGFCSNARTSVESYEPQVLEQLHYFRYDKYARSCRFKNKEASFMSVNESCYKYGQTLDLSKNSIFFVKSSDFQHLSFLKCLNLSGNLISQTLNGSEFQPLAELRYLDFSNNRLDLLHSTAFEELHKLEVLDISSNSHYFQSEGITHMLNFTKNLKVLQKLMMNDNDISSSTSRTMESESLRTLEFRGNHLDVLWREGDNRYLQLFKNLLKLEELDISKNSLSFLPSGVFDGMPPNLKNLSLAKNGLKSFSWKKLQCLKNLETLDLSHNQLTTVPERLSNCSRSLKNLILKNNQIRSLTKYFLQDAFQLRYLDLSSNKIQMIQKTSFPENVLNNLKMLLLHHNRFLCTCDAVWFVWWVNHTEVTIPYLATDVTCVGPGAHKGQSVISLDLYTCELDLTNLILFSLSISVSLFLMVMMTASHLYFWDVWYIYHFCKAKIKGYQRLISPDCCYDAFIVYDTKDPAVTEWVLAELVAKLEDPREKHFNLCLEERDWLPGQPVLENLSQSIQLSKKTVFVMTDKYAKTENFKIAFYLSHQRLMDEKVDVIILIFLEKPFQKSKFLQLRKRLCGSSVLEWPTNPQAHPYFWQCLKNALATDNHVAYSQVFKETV
Method: The ability of compounds to activate human TLR7 and/or TLR8 was assessed in a cellular reporter assay using HEK293 cells transiently transfected with a TLR7 or TLR8 expression vector and NFκB-luc reporter construct. In one instance the TLR expression construct expresses the respective wild type sequence or a mutant sequence comprising a deletion in the second leucine-rich repeat of the TLR.
Briefly, HEK293 cells were grown in culture medium (DMEM supplemented with 10% FCS and 2 mM Glutamine). For transfection of cells in 10 cm dishes, cells were detached with Trypsin-EDTA, transfected with a mix of CMV-TLR7 or TLR8 plasmid (750 ng), NFκB-luc plasmid (375 ng) and a transfection reagent and incubated 24 hours at 37° C. in a humidified 5% CO2 atmosphere. Transfected cells were then detached with Trypsin-EDTA, washed in PBS and resuspended in medium to a density of 1.67×10^5 cells/mL. Thirty microliters of cells were then dispensed into each well in 384-well plates, where 10 μL of compound in 4% DMSO was already present. […] Dose response curves were generated from measurements performed in quadruplicates. Lowest effective concentrations (LEC) values, defined as the concentration that induces an effect which is at least two fold above the standard deviation of the assay, were determined for each compound.

[1] = test system: interferon-stimulated responsive elements (ISRE); assay: Activation of ISRE promoter elements by conditioned media from PBMC (HEK-ISREluc); assay type: cell-based, human; parameters: unit not given here; conditions: compound applied to PBMCs, supernatant transferred to HEK-ISREluc cells, 24 hours
Method: The potential of compounds to induce IFN-I was also evaluated by measuring the activation of interferon-stimulated responsive elements (ISRE) by conditioned media from PBMC. The ISRE element of sequence GAAACTGAAACT is highly responsive to the STAT1-STAT2-IRF9 transcription factor, activated upon binding of IFN-I to their receptor IFNAR (Clontech, PT3372-5W). The plasmid pISRE-Luc from Clontech (ref. 631913) contains 5 copies of this ISRE element, followed by the firefly luciferase ORF. A HEK293 cell line stably transfected with pISRE-Luc (HEK-ISREluc) was established to profile of the conditioned PBMC cell culture media.
Briefly, PBMCs were prepared from buffy coats of at least two donors using a standard Ficoll centrifugation protocol. Isolated PBMCs were resuspended in RPMI medium supplemented with 10% human AB serum and 2×10^5 cells/well were dispensed into 384-well plates containing compounds (70 μL total volume). After overnight incubation, 10 μL of supernatant was transferred to 384-well plates containing 5×10^3 HEK-ISREluc cells/well in 30 μL (plated the day before). Following 24 hours of incubation, activation of the ISRE elements was measured by assaying luciferase activity using 40 μL/well Steady Lite Plus substrate (Perkin Elmer) and measured with ViewLux ultraHTS microplate imager (Perkin Elmer). The stimulating activity of each compound on the HEK-ISREluc cells was reported as LEC value, defined as the compound concentration applied to the PBMCs resulting in a luciferase activity at least two fold above the standard deviation of the assay. The LEC in turn indicates the degree of ISRE activation on transfer of a defined amount of PBMC culture medium. Recombinant interferon α-2a (Roferon-A) was used as a standard control compound.

| SMILES | TLR7-wt (LEC) (human TLR7) | HEK-ISRE luc (LEC) [1] |
| --- | --- | --- |
| CCCCCNc1nc(N)nc2ccc(Br)cc12 [Compound 13] | 0.76 | 0.57 |
| CCCCNc1nc(N)nc2cc(C(=O)OC)ccc12 [Compound 17] | 5.10 | 0.75 |
| CCC[C@@H](CO)Nc1nc(N)nc2cc(CO)ccc12 [Compound 33] | 1.88 | 0.14 |
| CCC[C@@H](CO)Nc1nc(N)nc2cccc(-c3ccccc3)c12 [Compound 10] | 6.08 | 2.14 |
| CCCCNc1nc(N)nc2cccc(OC(C)C)c12 [Compound 31] | 0.09 | 0.04 |
| CCCCNc1nc(N)nc2ccc(Oc3ccc(C(F)(F)F)cc3Cl)cc12 [Compound 35] | 4.15 | >23.81 |
| C#CCOc1cccc2nc(N)nc(NCCCC)c12 [Compound 30] | 0.05 | 0.04 |
| CCC[C@@H](CCO)Nc1nc(N)nc2ccc(C(C)C)cc12 [Compound 26] | 3.60 | 3.07 |
| CCCCNc1nc(N)nc2cccc(CCc3ccccc3)c12 [Compound 32] | 0.13 | 0.27 |
| CCCCNc1nc(N)nc2ccc(-n3cnc(C)c3)cc12 [Compound 21] | >25 | 12.06 |
| CCCCNc1nc(N)nc2ccc(OC)cc12 [Compound 40] | 5.64 | 2.44 |
| CCCCNc1nc(N)nc2ccc(F)cc12 [Compound 38] | 0.29 | 0.11 |

Second part, led by results:

| TLR7-wt (LEC) (human TLR7) | SMILES | HEK-ISRE luc (LEC) [1] |
| --- | --- | --- |
| 0.54 | CCC[C@@H](CO)Nc1nc(N)nc2cc(F)ccc12 [Compound 48] | 0.02 |
| 2.01 | CCC[C@@H](CO)Nc1nc(N)nc2cc(C(=O)OC)ccc12 [Compound 86] | 0.28 |
| 0.23 | CCCC[C@@H](CO)Nc1nc(N)nc2cc(F)ccc12 [Compound 60] | 0.02 |
| 0.43 | CCC[C@@H](CO)Nc1nc(N)nc2cc(C)ccc12 [Compound 44] | 0.09 |
| 1.85 | CCCC[C@@H](CCO)Nc1nc(N)nc2ccc(OC)cc12 [Compound 88] | 0.88 |
| 1.81 | CCCCNc1nc(N)nc2cc(F)c(F)cc12 [Compound 42] | 0.26 |
| 0.11 | CCC[C@@H](CCO)Nc1nc(N)nc2cc(F)ccc12 [Compound 64] | 0.04 |
| 7.48 | CCC[C@@H](CO)Nc1nc(N)nc2c(Cl)cccc12 [Compound 69] | 0.73 |
| 0.41 | CCC[C@@H](CO)Nc1nc(N)nc2cc(Cl)ccc12 [Compound 70] | 0.01 |
| 1.59 | CCCC[C@@H](CCO)Nc1nc(N)nc2ccc(F)cc12 [Compound 83] | 0.37 |
| 0.16 | CCCC[C@@H](CCO)Nc1nc(N)nc2cc(OC)ccc12 [Compound 87] | 0.04 |
| 0.75 | CCCC[C@@H](CO)Nc1nc(N)nc2cccc(F)c12 [Compound 62] | 0.03 |
| 0.44 | CCCC[C@@H](CCO)Nc1nc(N)nc2ccc(C)cc12 [Compound 74] | 0.14 |
| 0.77 | CCC[C@@H](CO)Nc1nc(N)nc2cccc(C)c12 [Compound 46] | 0.07 |
| 0.39 | CCC[C@@H](CO)Nc1nc(N)nc2cc(OC)ccc12 [Compound 56] | 0.09 |
| 2.50 | CC[C@H](C)[C@@H](CO)Nc1nc(N)nc2c(F)cccc12 [Compound 67] | 0.21 |
